≈ marks a conversion by molar mass, not a printed value. Calls of active or inactive are those of the source. No cut-off for these calls is given here.
Key:
K562 [1] = assay: Antiproliferative activity against human K562 cells assessed as reduction in cell viability at 10 ug/ml measured after 24 hrs by MTT assay relative to control; assay type: functional
ATN-1 = assay: Antiproliferative activity against human ATN1 cells assessed as reduction in cell viability measured after 24 hrs by MTT assay; assay type: functional; settings: ATN-1, 24 h, read-out: ED50 (the source's name)
Homo sapiens [2] = organism: Homo sapiens; assay: Inhibition of NF-kappaB localization in nucleus of human L540 cells at 10 ug/ml measured after 5 to 24 hrs by DAPI staining immunofluorescence microscopy
Homo sapiens [3] = organism: Homo sapiens; assay: Inhibition of TNF alpha stimulated NF-kappaB in human FL cells transfected with kappaB luciferase at 5 to 10 ug/ml incubated for 4 hrs followed by TNF alpha stimulation measured after 3 hrs by dual luciferase reporter gene assay; assay type: cell-based
Homo sapiens [4] = organism: Homo sapiens; assay: Inhibition of NF-kappaB localization in nucleus of human L540 cells at 1.5 ug/ml measured after 5 hrs by DAPI staining immunofluorescence microscopy
Homo sapiens [5] = organism: Homo sapiens; assay: Inhibition of NF-kappaB localization in nucleus of human L540 cells at 3 ug/ml measured after 5 hrs by DAPI staining immunofluorescence microscopy
Homo sapiens [6] = organism: Homo sapiens; assay: Inhibition of NF-kappaB localization in nucleus of human L540 cells at 5 ug/ml measured after 5 hrs by DAPI staining immunofluorescence microscopy
Homo sapiens [7] = organism: Homo sapiens; assay: Inhibition of NF-kappaB localization in nucleus of human L540 cells at 0.7 ug/ml measured after 5 to 24 hrs by DAPI staining immunofluorescence microscopy
Homo sapiens [8] = organism: Homo sapiens; assay: Inhibition of NF-kappaB localization in nucleus of human L540 cells at 6 ug/ml measured after 5 hrs by DAPI staining immunofluorescence microscopy
[9] = molecular target: Transcription factor p65 (Homo sapiens) (UniProt Q04206); assay: Inhibition of NF-kappaB RelA association with importin alpha in human KM-H2 cells at 0.2 ug/ml after 6 hrs by immunoprecipitation method; assay type: cell-based
Transcription factor p65 (Homo sapiens), sequence (Q04206 whole entry): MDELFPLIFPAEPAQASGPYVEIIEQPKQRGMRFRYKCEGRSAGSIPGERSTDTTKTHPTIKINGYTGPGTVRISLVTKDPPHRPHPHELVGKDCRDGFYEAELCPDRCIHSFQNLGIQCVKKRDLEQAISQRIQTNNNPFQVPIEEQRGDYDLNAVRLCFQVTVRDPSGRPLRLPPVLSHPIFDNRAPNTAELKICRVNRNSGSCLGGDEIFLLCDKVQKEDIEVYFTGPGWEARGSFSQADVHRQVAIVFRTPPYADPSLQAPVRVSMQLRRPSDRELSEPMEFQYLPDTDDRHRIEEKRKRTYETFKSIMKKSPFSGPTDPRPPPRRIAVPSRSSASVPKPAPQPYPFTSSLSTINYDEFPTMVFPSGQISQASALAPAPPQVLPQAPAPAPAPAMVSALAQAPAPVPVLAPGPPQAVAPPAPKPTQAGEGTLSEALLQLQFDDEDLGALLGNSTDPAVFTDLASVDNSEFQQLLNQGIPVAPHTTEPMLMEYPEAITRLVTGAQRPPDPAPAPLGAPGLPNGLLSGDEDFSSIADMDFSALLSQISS

Homo sapiens [10] = organism: Homo sapiens; assay: Antiproliferative activity against human KK1 cells assessed as reduction in cell viability at 25 to 100 ng/ml measured after 24 to 48 hrs by MTT assay; assay type: functional, cell-based
HeLa [11] = assay: Inhibition of TNF alpha stimulated NF-kappaB localization in nucleus of human HeLa cells transfected with GFP-fused RelA and IKBalpha expressing plasmid incubated for 2 hrs followed by TNF alpha stimulation by immunofluorescence microscopy; assay type: cell-based
HeLa [12] = assay: Inhibition of TNF alpha stimulated NF-kappaB localization in nucleus of human HeLa cells transfected with GFP-fused RelA C38S and IKBalpha expressing plasmid incubated for 2 hrs followed by TNF alpha stimulation by immunofluorescence microscopy; assay type: cell-based
Homo sapiens [13] = organism: Homo sapiens; assay: Inhibition of NF-kappaB localization in nucleus of human L540 cells at 0.2 ug/ml measured after 5 hrs by DAPI staining immunofluorescence microscopy
HeLa [14] = assay: Inhibition of TNF alpha stimulated NF-kappaB in human HeLa cells transfected with GFP-fused RelA mutant and IKBalpha expressing plasmid incubated for 2 hrs followed by TNF alpha stimulation by immunofluorescence microscopy; assay type: cell-based
L-540 = assay: Antiproliferative activity against human L540 cells assessed as reduction in cell viability at 25 to 100 ng/ml measured after 24 to 48 hrs by MTT assay; assay type: functional, cell-based
Homo sapiens [15] = organism: Homo sapiens; assay: Antiproliferative activity against human KMM1 cells assessed as reduction in cell viability at 25 to 100 ng/ml measured after 24 to 48 hrs by MTT assay; assay type: functional, cell-based
Homo sapiens [16] = organism: Homo sapiens; assay: Antiproliferative activity against human KOB cells assessed as reduction in cell viability at 25 to 100 ng/ml measured after 24 to 48 hrs by MTT assay; assay type: functional, cell-based
[17] = Acute toxicity in rat; settings: in vivo
U-266 = assay: Antiproliferative activity against human U266 cells assessed as reduction in cell viability at 25 to 100 ng/ml measured after 24 to 48 hrs by MTT assay; assay type: functional, cell-based
K562 [18] = assay: Antiproliferative activity against human K562 cells assessed as reduction in cell viability at 25 to 100 ng/ml measured after 24 to 48 hrs by MTT assay; assay type: functional, cell-based
HeLa [19] = assay: Antiproliferative activity against human HeLa cells assessed as reduction in cell viability at 25 to 100 ng/ml measured after 24 to 48 hrs by MTT assay; assay type: functional, cell-based
[20] = molecular target: T1, Importin subunit alpha-4 (Homo sapiens) (UniProt O00505); assay: Inhibition of importin alpha 3 in human KM-H2 cells at 0.2 ug/ml after 6 hrs by Western blot analysis (reference value: 1); assay type: cell-based
T1 sequence (whole entry): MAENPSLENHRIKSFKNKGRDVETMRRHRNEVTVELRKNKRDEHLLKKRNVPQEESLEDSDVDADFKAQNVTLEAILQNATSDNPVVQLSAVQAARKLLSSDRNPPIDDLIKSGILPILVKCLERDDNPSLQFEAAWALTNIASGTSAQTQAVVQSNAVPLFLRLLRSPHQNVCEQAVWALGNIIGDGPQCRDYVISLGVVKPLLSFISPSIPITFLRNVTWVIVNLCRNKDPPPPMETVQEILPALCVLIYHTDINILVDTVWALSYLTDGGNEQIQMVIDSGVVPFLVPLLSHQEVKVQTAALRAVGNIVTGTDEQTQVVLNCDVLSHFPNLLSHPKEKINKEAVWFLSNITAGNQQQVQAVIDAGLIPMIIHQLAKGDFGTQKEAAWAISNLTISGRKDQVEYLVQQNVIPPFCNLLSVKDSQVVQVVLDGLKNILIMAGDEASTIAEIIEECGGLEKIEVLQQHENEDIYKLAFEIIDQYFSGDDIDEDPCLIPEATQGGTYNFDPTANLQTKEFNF

KM-H2 = assay: Antiproliferative activity against human KM-H2 cells assessed as reduction in cell viability at 25 to 100 ng/ml measured after 24 to 48 hrs by MTT assay; assay type: functional, cell-based
Homo sapiens [21] = organism: Homo sapiens; assay: Inhibition of TNF alpha stimulated NF-kappaB in human FL cells transfected with kappaB luciferase incubated for 2 hrs followed by TNF alpha stimulation measured after 3 hrs by dual luciferase reporter gene assay; assay type: cell-based
HeLa [22] = assay: Inhibition of TNF alpha stimulated NF-kappaB in human HeLa cells transfected with GFP-fused p50 mutant and IKBalpha expressing plasmid incubated for 2 hrs followed by TNF alpha stimulation by immunofluorescence microscopy; assay type: cell-based

SMILES | Activity (K562 [1]) [%] | EC50 (ATN-1) [µg/mL] | also measured
C=C/[N+]([O-])=N/CCCCCCCCn1cc([Si](C)(C)C)nn1 | <20 | 0.68 (≈ 2.1 µM) | 
C=C/[N+]([O-])=N/CCCCCCCC(=O)CCCCCC(C)C | <20 | 1.82 (≈ 5.86 µM) | inhibition (Homo sapiens [2]): Active; inhibition (Homo sapiens [3]): Active
C=C/[N+]([O-])=N/CCCCCCCCn1cc(CC(C)C)nn1 | <20 | 0.83 (≈ 2.7 µM) | 
C=C/[N+]([O-])=N/CCCCCCCC(=O)CCCCC[C@@H](C)CC | <20 | 1.65 (≈ 5.08 µM) | 
C=C/[N+]([O-])=N/CCCCCCCCn1cc(CCCC)nn1 | <20 | 0.69 (≈ 2.24 µM) | 
C=C/[N+]([O-])=N/CCCCCCCCn1cc(CN(Cc2cn(CCCCCCCC/N=[N+](\[O-])C=C)nn2)Cc2cn(CCCCCCCC/N=[N+](\[O-])C=C)nn2)nn1 | <20 | 0.23 (≈ 0.285 µM) | inhibition (Homo sapiens [4]): Active
C=C/[N+]([O-])=N/CCCCCCCC(=O)CCCCCC | <20 | 1.29 (≈ 4.57 µM) | 
C=C/[N+]([O-])=N/CCCCCCCC(=O)CCc1ccccc1 | <20 | 1.09 (≈ 3.6 µM) | 
C=C/[N+]([O-])=N/CCCCCCCCn1cc(CCC(C)C)nn1 | <20 | 0.72 (≈ 2.24 µM) | 
C=C/[N+]([O-])=N/CCCCCCCCn1cc(CCCCC#N)nn1 | <20 | 0.97 (≈ 2.92 µM) | 
C=C/[N+]([O-])=N/CCCCCCCCn1cc(C2CC2)nn1 | <20 | 0.84 (≈ 2.88 µM) | inhibition (Homo sapiens [5]): Active
C=C/[N+]([O-])=N/CCCCCCCCOS(C)(=O)=O | <20 | 1.18 (≈ 4.24 µM) | 
C=C/[N+]([O-])=N/CCCCCCCCO | <20 | 1.05 (≈ 5.24 µM) | 
C=C/[N+]([O-])=N/CCCCCCCCn1ccnn1 | <20 | 1.01 (≈ 4.02 µM) | 
C=C/[N+]([O-])=N/CCc1ccccc1 | <20 | 1.03 (≈ 5.84 µM) | inhibition (Homo sapiens [6]): Active
C=C/[N+]([O-])=N/CCCCCCCCn1cc(C(C)C)nn1 | <20 | 0.84 (≈ 2.86 µM) | 
C=CC(C)(C)[C@@]12C=C(OC)C(=O)N3/C(=C/c4c[nH]cn4)C(=O)N[C@]31N(OC)c1ccccc12 |  |  | inhibition (Homo sapiens [2]): inactive

SMILES | Activity (K562 [1]) [%] | EC50 (ATN-1) [µg/mL] | also measured
CC1(C)CCC2=C(O1)c1ccccc1C(=O)C2=O |  |  | inhibition (Homo sapiens [7]): inactive
C=C/[N+]([O-])=N/CCCCCCCC(C)=O | <20 | 2.26 (≈ 10.6 µM) | 
C=C/[N+]([O-])=N/CCCCCCCCn1cc(C2(O)CCCCC2)nn1 | <20 | 1.31 (≈ 3.75 µM) | 
C=C/[N+]([O-])=N/CCCCCCCCn1cc(-c2cccnc2)nn1 | <20 | 0.82 (≈ 2.5 µM) | 
C=C/[N+]([O-])=N/CCCCCCCCn1cc(-c2cc3ccccc3c3ccccc23)nn1 | <20 | 1.03 (≈ 2.41 µM) | 
C=C/[N+]([O-])=N/CCCCCCCCn1cc(C(C)(C)C)nn1 | <20 | 0.69 (≈ 2.24 µM) | inhibition (Homo sapiens [5]): Active
C=C/[N+]([O-])=N/CCCCCCCCn1cc(CCCCO)nn1 | <20 | 0.71 (≈ 2.2 µM) | inhibition (Homo sapiens [5]): Active
C=C/[N+]([O-])=N/CCCCCCCC(=O)CCCCCCC(C)C | <20 | 1.17 (≈ 3.61 µM) | inhibition (Homo sapiens [8]): Active
C=C/[N+]([O-])=N/CCCCCCCCn1cc(-c2ccccc2)nn1 | <20 | 0.76 (≈ 2.32 µM) | 
C=C/[N+]([O-])=N/CCCCCCCCO[Si](C)(C)C(C)(C)C | <20 | 1.34 (≈ 4.26 µM) | 
C=C/[N+]([O-])=N/CCCCCCCCn1cc(C(C)(C)O)nn1 | <20 | 1.15 (≈ 3.72 µM) | 
C=C/[N+]([O-])=N/CCCCCCCCn1cc(-c2ccc(N)cc2)nn1 | <20 | 0.76 (≈ 2.22 µM) | 
C=C/[N+]([O-])=N/CCCCCCCCn1nncc1CCC(C)C | <20 | 0.85 (≈ 2.64 µM) | 
C#CC(=O)CCCCCCC/N=[N+](\[O-])C=C | <20 | 0.03 (≈ 0.135 µM) | inhibition [9]: Active; Activity (Homo sapiens [10]): Active; inhibition (HeLa [11]): Active; inhibition (HeLa [12]): inactive; inhibition (Homo sapiens [13]): Active; inhibition (HeLa [14]): inactive; Activity (L-540): Active; Activity (Homo sapiens [15]): Active; Activity (Homo sapiens [16]): Active; LD50 [17]: > 300 mg/kg; Activity (U-266): Active; Activity (K562 [18]): Active; Activity (HeLa [19]): Active; fold change (FC) [20]: 0.53; inhibition (Homo sapiens [3]): Active; Activity (KM-H2): Active; inhibition (Homo sapiens [21]): Dose-dependent effect; inhibition (HeLa [22]): Active
C=C/[N+]([O-])=N/CCCCCCCCn1cc(CCBr)nn1 | <20 | 0.97 (≈ 2.71 µM) | 
C=C/[N+]([O-])=N/CCCCCCCC(=O)CCCCC[C@H](C)CC | <20 | 1.49 (≈ 4.59 µM) | 
